Assay results from patent publication US20060094783A1 (Tava Pharmaceutical Industries, Ltd., priority 1990, published 2006).
Where “and” joins values, the source holds several entries; their conditions need not be identical. Equal entries are not always repeated. Structures can show the parent of a compound that is named as a salt. Where two headings read alike, the source gives them in different places.

Columns and labels:
[1] = tested on: haloperidol-induced catalepsy in mice; assay: Reversal of haloperidol-induced catalepsy in mice; assay type: in vivo, mouse; settings: peak effect at 7.5-10 mg/kg, 3 hours after haloperidol
Method: All drugs were administered i.p. in a volume of 0.2 mL. Two hours later, haloperidol was injected s.c. at a dose of 6 mg/kg in a volume of 0.1-0.2 mL. Motor coordination tests were made at 3 hours after giving haloperidol, that is, 5 hours after administering the presumed protective drugs.
Motor coordination tests and rigidity were quantified according to three different parameters: (a) ability to walk the length of a horizontal rod, 80 cm-long; (b) ability to climb down, face down, a vertical rod, 80 cm-long; (c) duration of immobility in an unnatural sitting posture whereby the abdomen of the mouse is pressed against a “wall.” Full performance as in haloperidol-untreated mice is given the score of 4 in each test, or a total of 12 in all tests. Poor performance is given a score from 1 to 3.

[2] = tested on: crush-injured rat optic nerve; settings: rats, 2 mg/kg i.p. immediately after optic nerve crush
Text: At short terms, metabolic measurements were monitored in terms of the mitochondrial NADH/NAD ratio, which depends on the activity of the electron transport system, and thus indicate levels of energy production.
Monitoring of the intramitochondrial NADH redox state is based on the fact that NADH, unlike the oxidized form NAD^+, fluoresces when illuminated at […]. A flexible Y-shaped bundle of optic fibers (light guide) was used to transmit the light to and from the optic nerve. […] Changes in the reflected light were correlated with changes in tissue absorption caused by hemodynamic effects and with movements of the optic nerve secondary to alterations in arterial blood pressure and nerve volume.
Animal utilization was in accord with the ARVO Resolution on the use of animals in research. […] With the animal's head held in place by a head holder, a lateral canthotomy was performed under a binocular operating microscope and the conjuctiva was incised lateral to the cornea.

MCA-occluded Wistar rats [3] = tested on: MCA-occluded Wistar rats
Method: (§1) Middle cerebral artery occlusion (MCAO) in the rat. […] Male Wistar rats (Olac England-Jerusalem) 300-400 g each were anesthetized with a solution of Equitesine administered i.p. at a dose of 3 mL/kg. Equitesine consists of 13.5 mL sodium pentothal solution (60 mg/mL), 3.5 g chloral hydrate, 1.75 g MgSO4, 33 mL propylene glycol, 8.3 mL absolute alcohol made up to 83 mL with distilled water. […] In order to expose the left middle cerebral artery, a cut was made in the temporal muscle. The tip of the coronoid process of mandible was excised as well and removed with a fine rongeur. Craniectomy was made with a dental drill at the junction between the median wall and the roof of the inferotemporal fossa. The dura matter was opened carefully using a 27 gauge needle. The MCA was permanently occluded by microbipolar coagulation at low power setting, beginning 2-3 mm medial to the olfactory tract between its cortical branch to the rhinal cortex and the laterate striate arteries.
After coagulation, the MCA was severed with microscissors and divided to ensure complete occlusion. Following this, the temporalis muscle was sutured and laid over the craniectomy site. The skin was closed with a running 3-0 silk suture. A shad craniectomy operation was performed on a parallel group of rats, but without cauterization of the MCA. During the entire surgical operation (20-25 min) in either group, body temperature was maintained at 37 to 38° C. by means of a body-temperature regulator (Kyoristsu, Japan) consisting of a self-regulating heating pad connected to a rectal thermistor. […] The volume of brain tissue incurring damage following ischemia was determined.
1 mg/kg immediately after surgery.
0.5 mg/kg 2 hours after surgery
Then multislices T2-weighted images (3000/80) were acquired (5 contiguous slices, 3 mm thick).
The following MRI parameters were determined for each group of rats:
The use of contiguous slices allows the conversion-of area units into volume units by simply multiplying the area value by the slice thickness

[4] = tested on: maximal electroshock seizures in mice; assay: Maximal electroshock test (MES test) in mice; assay type: in vivo, mouse; settings: 100 mg/kg
Text: The MES test is a classical model to indicate efficacy for partial and generalized seizures in humans. The agents' mechanism of action is via their ability to prevent the spread of seizures. Some agents, however, that prevent seizure spread have the side effect of lowering seizure threshold. These agents therefore have both proconvulsive and anticonvulsive side effects.

[5] = tested on: neonatal rat cerebellum cell cultures; settings: for Percent Protection: after subtraction of solvent effect
Method: Procedures: cultures of mechanically dissociated neonatal rat cerebellum. […] The cerebella are then dissociated after 20-25 passages through a sterile 13 gauge, 10 cm long stainless steel needle attached to a 5 ml syringe with an inserted 45 μm pore size nylon sieve. The dissociated cells are centrifuged at 200 g for 5 minutes, the supernatant discarded and the cells resuspended in enriched medium. The cell viability is determined by the trypan blue exclusion test. […] After 4 days in culture, the media are replaced with media containing the desired test compounds. Experiments are done in duplicate and repeated 2 or 3 times. […] Nerve cell survival is evaluated by phase contrast microscopy and trypan blue staining after 24 h.
Values, expressed as the percent of untreated controls, represent the average of 2 experiments run in duplicate for culture experiments, and the mean±SEM of 4 animals for ischemia. The percent protection value is the effect of the test compound after subtraction of the solvent effect.

MCA-occluded Wistar rats [6] = tested on: MCA-occluded Wistar rats; remark: listed apart in the source
Method: as §1
After coagulation, the MCA was severed with microscissors and divided to ensure complete occlusion. Following this, the temporalis muscle was sutured and laid over the craniectomy site. The skin was closed with a running 3-0 silk suture. A shad craniectomy operation was performed on a parallel group of rats, but without cauterization of the MCA. […] The volume of brain tissue incurring damage following ischemia was determined. […]

[7] = tested on: Metrazol seizure threshold in mice; assay: Timed Intravenous Infusion of Metrazol test; assay type: in vivo, mouse; settings: 141 mg/kg
Method: Timed Intravenous Infusion of Metrazol Test. This test measures the minimal seizure threshold of each animal. Metrazol is infused at 0.185 mg/ml into the tail veins of mice.

[8] = tested on: anoxia-induced hyperactive syndrome in juvenile rats; assay: Anoxia-induced hyperactive syndrome in juvenile rats; assay type: in vivo, rat; settings: 0.5 mg/kg/day to nursing mother
Method: Anoxia was performed on rat pups on the first post-natal day. They were placed in a glass chamber and exposed to 100% nitrogen for 25 minutes. They were resuscitated by intermittent massage softly applied to the chest and then returned to their respective mothers. Control rats received the same treatment but with air instead of nitrogen.
Locomotion was measured in 6 fully computerized cages (28×28 cm) by recording the number of crossings over a given period of time. Crossings of grid infrared beams at 4-cm intervals initiated electrical impulses which fed a counter. Recordings of motor activity were made at the ages of 15 and 20 days, over a period of 15 minutes.

[9] = tested on: amphetamine-induced stereotype behavior in senescent rats; assay: Amphetamine-induced stereotype behavior in senescent rats; assay type: in vivo, rat; settings: control senescent rats, 0.5 mg/kg/day in drinking water, amphetamine 0.5 mg/kg s.c.
Method: 45 minutes later, lateral head movements were counted.

[10] = tested on: passive avoidance response in young rats; assay: Passive avoidance test in young rats (memory); assay type: in vivo, rat; settings: Protocol B (0.5 mg/kg/day), anoxia-lesioned rats
Text: The effect of R(+)-PAI and S(−)-PAI on the improvement or restoration of memory was investigated in the passive avoidance test. If the drug is effective, it increases the latency of response to enter a dark compartment or chamber where an electroshock has been experienced earlier by the rat being tested. The latency of the maximal response is 300 seconds.

[11] = tested on: MPTP-induced striatal DA and DOPAC depletions in mice; assay: Suppression of MPTP-induced dopaminergic toxicity (striatal DA and DOPAC); assay type: in vivo, mouse; settings: PAI […] i.p., deprenyl 5 mg/kg i.p., 5 days
[12] = pretreatment 1 h before MPTP 30 mg/kg s.c.

## C#CCN[C@@H]1CCc2ccccc21.CS(=O)(=O)O [(R)-PAI Mesylate, R-(+)-N-propargyl-1-aminoindan mesylate]
[1]
  peak activity score as % of saline control: 94%
[2]
  effect on injury-induced reduction in energy production (NADH response to anoxia): blocked the injury-induced reduction in energy production
MCA-occluded Wistar rats [3]; Table 21, n=9, MRI T2 scan 48 h after MCA-O, 1.0, 0.5, 1.0 mg/kg ip at 0, 2, 24 hrs
  Infarct size, MEAN ± SD: 163.5 ± 43.9 mm^3
MCA-occluded Wistar rats [3]; Table 21, n=9 vs 10 untreated
  reduction of infarct size: [R](+)PAI Mesylate reduces infarct size by 40% significantly
MCA-occluded Wistar rats [3]; Table 22, n=5, MRI 48 hrs after MCA-Occlusion
  Infarct size, MEAN + SD: 172 ± 28 mm^3
MCA-occluded Wistar rats [3]; Table 22, n=5 vs 6 untreated MCAO rats, mesylate
  reduction of infarct size: 36% and 36.3%
MCA-occluded Wistar rats [3]; n=9 vs 10 untreated
  infarct size as % of that in untreated animals: about 60%
[4]
  mice protected: one out of three
[5]; 0.01 μM + NMDA
  Surviving Cells (percent of untreated controls): 12
  Percent Protection: 2
[5]; 1.00 μM + NMDA
  Surviving Cells (percent of untreated controls): 22
  Percent Protection: 12
[5]; 10.00 μM + NMDA
  Surviving Cells (percent of untreated controls): 37
MCA-occluded Wistar rats [6]; n=5, 24 hrs after MCA-Occlusion, scale 0-13
  Neurological Score, MEAN + SD: 2.78 ± 1.3
MCA-occluded Wistar rats [6]; n=5 vs 6 untreated MCAO rats, mesylate
  reduction of neurological score: 54% and 53.7%

## C#CCN[C@H]1CCc2ccccc21 [(S)-PAI Mesylate]
[4]
  mice protected: three out of three
[7]
  effect on time to first focal seizure and onset of clonus (proconvulsive activity): reduces the time

## C#CCN[C@H]1CCc2ccccc21 [S(−)PAI]
[8]; 15-day old anoxia-lesioned rats
  numbers of crossings of infrared beam grid over 15 minutes: 334 ± 196(5)
[8]; 20-day old anoxia-lesioned rats
  numbers of crossings of infrared beam grid over 15 minutes: 778 ± 232(6)
[9]
  Stereotype Behavior Rating (lateral head movements in 1 minute): 94 ± 18
[10]
  latency After Electroshock: 112 ± 112 s
  latency Before Electroshock: 48 ± 19 s
[11]; drug alone
  striatal DA: 174.0 ± 4.8 ng/mg protein
  striatal DOPAC: 7.5 ± 0.2 ng/mg protein
[11]; [12]
  striatal DA: 53.4 ± 6.9 ng/mg protein
  striatal DOPAC: 7.0 ± 0.6 ng/mg protein
